Measured values taken from US12673961B2 (Agios Pharmaceuticals, Inc., priority 2022, dated 2026).

These compounds were tested against T1, human PAH with the R408W mutation (Homo sapiens, UniProt P00439, R408W) (assay: Cell Based Phenylalanine Flux Assay). Settings: A375 cells expressing R408W PAH; 24 hrs with compound, then 20 μM sepiapterin and 800 μM 13C9,15N-Phenylalanine for 4 hours; 13C-Tyrosine in media by LC-MS; average where tested multiple times; read-out: AC50.
T1 construct: expressed in transfected cells
T1 sequence (P00439 1-452 R408W): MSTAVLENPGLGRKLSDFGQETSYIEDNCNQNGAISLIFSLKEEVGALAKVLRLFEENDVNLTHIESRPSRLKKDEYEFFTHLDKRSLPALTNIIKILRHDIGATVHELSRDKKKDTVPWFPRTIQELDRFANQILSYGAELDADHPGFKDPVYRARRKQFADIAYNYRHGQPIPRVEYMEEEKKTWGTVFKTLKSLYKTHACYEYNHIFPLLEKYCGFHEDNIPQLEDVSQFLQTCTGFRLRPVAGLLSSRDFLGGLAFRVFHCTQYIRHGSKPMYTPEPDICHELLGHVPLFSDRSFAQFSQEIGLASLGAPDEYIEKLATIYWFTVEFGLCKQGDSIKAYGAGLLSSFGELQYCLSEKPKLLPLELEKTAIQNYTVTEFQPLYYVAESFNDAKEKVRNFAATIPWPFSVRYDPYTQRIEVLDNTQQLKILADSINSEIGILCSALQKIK
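Also: Ten-point dose curve from 2-fold serial dilutions, run in duplicate at 0.5% DMSO final, tracer step used 20 µM sepiapterin and 800 µM labeled phenylalanine.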

Row | AC50 | Compound
1 | 1 to 5 µM | COCc1ncc(C(=O)N2CCc3[nH]cnc3C2c2cc3ccccn3n2)o1 (centres unmarked)
2 | 1 to 5 µM | Cc1cccc2cc([C@@H]3c4nc[nH]c4CCN3c3nnc(C4CCC4)o3)nn12 (single isomer, unassigned)

Row | Compound | AC50
3 | Cc1nc([C@@H](C)O)oc1C(=O)N1CCc2[nH]cnc2[C@H]1c1cc2cccc(C)n2n1 (single isomer, unassigned) | 1 to 5 µM

Same assay, conditions: A375 cells expressing human R408W PAH; 24 hrs compound incubation; 13C-Tyrosine by LC-MS; average where tested multiple times; read-out: AC50

Row | AC50 | Compound
4 | > 5 µM | Cc1cccn2nc([C@H]3c4nc[nH]c4CCN3C(=O)c3nnc(C4CC4)o3)cc12 [Example 925, (R)-(5-cyclopropyl-1,3,4-oxadiazol-2-yl)(4-(4-methylpyrazolo[1,5-a]pyridin-2-yl)-6,7-dihydro-1H-imidazo[4,5-c]pyridin-5(4H)-yl)methanone]
5 | 1 to 5 µM | Cc1ccn2nc([C@@H]3c4nc[nH]c4CCN3C(=O)c3cnco3)cc2c1 [Example 1185, (S)-(4-(5-methylpyrazolo [1,5-a]pyridin-2-yl)-6,7-dihydro-1H-imidazo[4,5-c]pyridin-5(4H)-yl)(oxazol-5-yl)methanone]
6 | < 0.5 µM | Cc1ncccc1-c1nnc(C(=O)N2CCc3[nH]cnc3[C@H]2c2cc3c(Cl)cccn3n2)o1 [Example 1356, (S)-(4-(4-chloropyrazolo [1,5-a]pyridin-2-yl)-6,7-dihydro-1H-imidazo[4,5-c]pyridin-5(4H)-yl)(5-(2-methylpyridin-3-yl)-1,3,4-oxadiazol-2-yl)methanone]

Further lines, the compound ahead of its results:

Row | Compound | AC50
7 | C[C@@H](O)c1nc(C(F)F)c(C(=O)N2CCc3[nH]cnc3[C@H]2c2cc3cccc(Cl)n3n2)o1 [Example 1196, ((S)-4-(7-chloropyrazolo [1,5-a]pyridin-2-yl)-6,7-dihydro-1H-imidazo[4,5-c]pyridin-5(4H)-yl)(4-(difluoromethyl)-2-((R)-1-hydroxyethyl)oxazol-5-yl)methanone] | < 0.5 µM
8 | Cn1cc(-c2nnc(C(=O)N3CCc4[nH]cnc4[C@@H]3c3cc4cccc(Cl)n4n3)o2)cn1 [Example 1067, (R)-(4-(7-chloropyrazolo [1,5-a]pyridin-2-yl)-6,7-dihydro-1H-imidazo[4,5-c]pyridin-5(4H)-yl)(5-(1-methyl-1H-pyrazol-4-yl)-1,3,4-oxadiazol-2-yl)methanone] | > 5 µM
9 | Cc1cccc2cc([C@H]3c4nc[nH]c4CCN3C(=O)c3nnc(-c4cnn(C(F)F)c4)o3)nn12 [Example 915, (R)-(5-(1-(difluoromethyl)-1H-pyrazol-4-yl)-1,3,4-oxadiazol-2-yl)(4-(7-methylpyrazolo[1,5-a]pyridin-2-yl)-6,7-dihydro-1H-imidazo[4,5-c]pyridin-5(4H)-yl)methanone] | > 5 µM

Same assay, conditions: A375 cells expressing human R408W PAH; 24 hrs with compound, then sepiapterin and 13C9,15N-Phenylalanine for 4 hours; 13C-Tyrosine by LC-MS; average where tested multiple times; read-out: AC50

Row | AC50 | Compound
10 | > 5 µM | CC(C)c1nnc(C(=O)N2CCc3[nH]cnc3[C@@H]2c2cc3c(F)cccn3n2)o1 [Example 1453, (R)-(4-(4-fluoropyrazolo [1,5-a]pyridin-2-yl)-6,7-dihydro-1H-imidazo[4,5-c]pyridin-5(4H)-yl)(5-isopropyl-1,3,4-oxadiazol-2-yl)methanone]
11 | < 0.5 µM | CC(C)(C)c1ncc(C(=O)N2CCc3[nH]cnc3[C@H]2c2cc3c(F)cccn3n2)o1 [Example 2100, (S)-(2-(tert-butyl)oxazol-5-yl)(4-(4-fluoropyrazolo[1,5-a]pyridin-2-yl)-1,4,6,7-tetrahydro-5H-imidazo[4,5-c]pyridin-5-yl)methanone]
12 | < 0.5 µM | O=C(c1nc2ccccc2o1)N1CCc2[nH]cnc2[C@H]1c1cc2c(F)cccn2n1 [Example 2050, (S)-benzo[d]oxazol-2-yl (4-(4-fluoropyrazolo[1,5-a]pyridin-2-yl)-1,4,6,7-tetrahydro-5H-imidazo[4,5-c]pyridin-5-yl)methanone]
13 | > 5 µM | Fc1cccn2nc([C@H]3c4nc[nH]c4CCN3c3nnc(C(F)(F)F)o3)cc12 [Example 1822, (R)-2-(4-(4-fluoropyrazolo [1,5-a]pyridin-2-yl)-6,7-dihydro-1H-imidazo [4,5-c]pyridin-5(4H)-yl)-5-(trifluoromethyl)-1,3,4-oxadiazole]
14 | 1 to 5 µM | Cc1cccn2nc([C@H]3c4nc[nH]c4CCN3C(=O)c3nnc(C4CC4)s3)cc12 [Example 1996, (R)-(5-cyclopropyl-1,3,4-thiadiazol-2-yl)(4-(4-methylpyrazolo[1,5-a]pyridin-2-yl)-1,4,6,7-tetrahydro-5H-imidazo[4,5-c]pyridin-5-yl)methanone]
15 | < 0.5 µM | O=C(c1cnc(C2CC2)o1)N1CCc2[nH]cnc2C1c1cc2c(F)cccn2n1 (stereo in doubt) [Example 2098, (S)-(2-cyclopropyloxazol-5-yl)(4-(4-fluoropyrazolo[1,5-a]pyridin-2-yl)-1,4,6,7-tetrahydro-5H-imidazo[4,5-c]pyridin-5-yl)methanone]

More lines, now with the values behind:

Row | Compound | AC50
16 | CC(C)(F)c1nnc(C(=O)N2CCc3[nH]cnc3[C@@H]2c2cc3cccc(C(F)F)n3n2)o1 [Example 1437, (R)-(4-(7-(difluoromethyl)pyrazolo[1,5-a]pyridin-2-yl)-6,7-dihydro-1H-imidazo[4,5-c]pyridin-5(4H)-yl)(5-(2-fluoropropan-2-yl)-1,3,4-oxadiazol-2-yl)methanone] | 1 to 5 µM
17 | CN(C)c1ccc2c(C(=O)N3CCc4[nH]cnc4[C@H]3c3cc4c(C(F)(F)F)cccn4n3)cnn2c1 [Example 1746, (S)-(6-(dimethylamino)pyrazolo[1,5-a]pyridin-3-yl)(4-(4-(trifluoromethyl)pyrazolo [1,5-a]pyridin-2-yl)-6,7-dihydro-1H-imidazo[4,5-c]pyridin-5(4H)-yl)methanone] | < 0.5 µM
18 | FC(F)c1nnc(N2CCc3[nH]cnc3[C@H]2c2cc3c(OC(F)(F)F)cccn3n2)o1 [Example 2251, (S)-2-(difluoromethyl)-5-(4-(4-(trifluoromethoxy)pyrazolo [1,5-a]pyridin-2-yl)-1,4,6,7-tetrahydro-5H-imidazo [4,5-c]pyridin-5-yl)-1,3,4-oxadiazole] | < 0.5 µM
19 | Cc1cccn2nc([C@@H]3c4nc[nH]c4CCN3C(=O)c3nnc(-c4ccccn4)s3)cc12 [Example 1970, (S)-(4-(4-methylpyrazolo [1,5-a]pyridin-2-yl)-1,4,6,7-tetrahydro-5H-imidazo[4,5-c]pyridin-5-yl)(5-(pyridin-2-yl)-1,3,4-thiadiazol-2-yl) methanone] | < 0.5 µM
20 | Fc1ccc(-c2nnc(N3CCc4[nH]cnc4[C@@H]3c3cc4cccc(Cl)n4n3)o2)cc1 [Example 2087, (R)-2-(4-(7-chloropyrazolo [1,5-a]pyridin-2-yl)-1,4,6,7-tetrahydro-5H-imidazo [4,5-c]pyridin-5-yl)-5-(4-fluorophenyl)-1,3,4-oxadiazole] | > 5 µM
21 | Cc1cccc2cc([C@@H]3c4nc[nH]c4CCN3c3ccc(C(F)(F)F)cn3)nn12 [Example 2097, (S)-4-(7-methylpyrazolo [1,5-a]pyridin-2-yl)-5-(5-(trifluoromethyl)pyridin-2-yl)-4,5,6,7-tetrahydro-1H-imidazo[4,5-c]pyridine] | 0.5 to 1 µM
22 | Cc1cccnc1-c1nnc(N2CCc3[nH]cnc3[C@@H]2c2cc3c(F)cccn3n2)o1 [Example 2281, (R)-2-(4-(4-fluoropyrazolo [1,5-a]pyridin-2-yl)-1,4,6,7-tetrahydro-5H-imidazo [4,5-c]pyridin-5-yl)-5-(3-methylpyridin-2-yl)-1,3,4-oxadiazole] | > 5 µM
23 | Cc1cccc(-c2nnc(C(=O)N3CCc4[nH]cnc4[C@H]3c3cc4cccc(C)n4n3)o2)n1 [Example 1398, (S)-(4-(7-methylpyrazolo [1,5-a]pyridin-2-yl)-6,7-dihydro-1H-imidazo[4,5-c]pyridin-5(4H)-yl)(5-(6-methylpyridin-2-yl)-1,3,4-oxadiazol-2-yl)methanone] | < 0.5 µM
